# Results reported in ChEMBL document CHEMBL3576796, “A Broad Anti-influenza Hybrid Small Molecule That Potently Disrupts the Interaction of Polymerase Acidic Protein-Basic Protein 1 (PA-PB1) Subunits” (J Med Chem, 2015).
# Test: Antiviral activity against Influenza A virus A/Parma/24/09 (H1N1) (Oseltamivir-resistant) assessed as reduction in plaque formation after 48 hrs by plaque reduction assay
# Format: functional, Influenza A virus (A/Parma/24/2009(H1N1))
row,Structure (SMILES),EC50 [µM]
1,CCCOc1ccc(C(=O)Nc2nc3n(n2)C(c2ccccc2)C=C(C)N3)cc1 (centres undefined),49
2,Cc1cc(-c2ccccc2)nc2nc(NC(=O)c3ccccc3)nn12,25
3,Cc1cc(-c2ccccc2)nc2nc(C(=O)Nc3sc4c(c3C(N)=O)CCCCC4)nn12,5
4,Cc1cc(-c2ccccc2)n2nc(C(=O)Nc3sc4c(c3C(N)=O)CCCCC4)nc2n1,25
